Experimental data: publication PMC5791972 (PLoS ONE, 2018)

What was measured:
[1] = system: NMRI mice; format: in vivo, mouse; details: 8 mg/kg oral
Procedure: NMRI mice were habituated to their room for at least 2 to 3 weeks after the delivery and kept under standard conditions in groups of 4–5 animals per cage. Food and water were available ad libitum.
The tail suspension test was performed using with a BIOSEB system. In preparation for the experiment, a piece of tape (approx. 15 cm long) was wrapped around the end of the mouse tail approximately 2 mm before the tip. The tape was then attached to a holding device within the measuring unit at a height of approximately 30cm.
Movements of the animals were monitored and automatically evaluated by corresponding software. The duration of immobility during 6 min observation period was recorded. At the end of the experiment plasma samples were taken and the animals were sacrificed via isofluorane inhalation and subsequent decapitation.

[2] = target: 5-HT4e (h) (Homo sapiens, UniProt Q13639)
[3] = target: 5-HT1B (Rattus norvegicus, UniProt P28564)
[4] = target: 5-HT6 (h) (Homo sapiens, UniProt P50406)
Sequence of 5-HT6 (h) (P50406 whole entry): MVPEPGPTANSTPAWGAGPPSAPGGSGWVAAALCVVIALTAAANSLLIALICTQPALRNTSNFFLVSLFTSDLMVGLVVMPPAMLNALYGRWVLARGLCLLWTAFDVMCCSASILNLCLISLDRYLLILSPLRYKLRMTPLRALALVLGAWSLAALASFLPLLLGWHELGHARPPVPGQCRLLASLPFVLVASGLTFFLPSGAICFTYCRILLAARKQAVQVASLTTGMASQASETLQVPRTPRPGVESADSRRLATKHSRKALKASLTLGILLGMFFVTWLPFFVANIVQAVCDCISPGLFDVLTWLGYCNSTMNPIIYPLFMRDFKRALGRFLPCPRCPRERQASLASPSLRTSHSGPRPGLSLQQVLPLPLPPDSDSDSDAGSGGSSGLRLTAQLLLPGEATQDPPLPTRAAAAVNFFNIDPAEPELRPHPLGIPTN

Sequence of 5-HT4e (h) (Q13639 1-378 isoform Q13639-5): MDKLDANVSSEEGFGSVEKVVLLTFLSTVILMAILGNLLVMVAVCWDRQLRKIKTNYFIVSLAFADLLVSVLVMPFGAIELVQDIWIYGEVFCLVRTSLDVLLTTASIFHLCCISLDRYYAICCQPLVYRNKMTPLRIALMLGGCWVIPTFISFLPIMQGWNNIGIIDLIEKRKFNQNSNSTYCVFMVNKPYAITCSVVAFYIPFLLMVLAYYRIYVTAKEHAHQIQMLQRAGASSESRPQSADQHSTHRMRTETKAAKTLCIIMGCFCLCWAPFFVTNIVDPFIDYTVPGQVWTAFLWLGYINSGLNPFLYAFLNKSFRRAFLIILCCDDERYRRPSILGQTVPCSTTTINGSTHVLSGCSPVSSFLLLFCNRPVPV
Sequence of 5-HT1B (P28564 whole entry): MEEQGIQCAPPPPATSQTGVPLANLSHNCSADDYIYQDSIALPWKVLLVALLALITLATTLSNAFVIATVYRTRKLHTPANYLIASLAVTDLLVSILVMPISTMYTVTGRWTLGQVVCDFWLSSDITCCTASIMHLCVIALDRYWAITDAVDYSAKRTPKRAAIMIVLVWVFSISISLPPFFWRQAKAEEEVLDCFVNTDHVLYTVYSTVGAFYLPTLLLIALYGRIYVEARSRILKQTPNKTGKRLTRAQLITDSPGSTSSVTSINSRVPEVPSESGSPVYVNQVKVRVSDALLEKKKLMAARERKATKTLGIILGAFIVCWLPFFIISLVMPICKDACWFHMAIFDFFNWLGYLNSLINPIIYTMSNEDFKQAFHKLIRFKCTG

CNCCCN1c2ccccc2CCc2ccccc21 [desipramine, reference compound]
time of immobility [1]: reduced the time of immobility

NCCc1c[nH]c2ccc(O)cc12 [serotonin]
nH [2]: 0.9 | nH [3]: 0.7 | nH [4]: 1.0
